The source of these data is patent US6835382B2, “Ii peptide therapeutics to enhance antigen presentation” (University of Massachusetts, priority 1996, dated 2004).

The subject of experiment [1] is HLA-DR1 molecules. Put plainly: release of biotin-labeled hMBP(90-102) from HLA-DR1 without unlabeled antigenic peptide (assay I). It is filed as binding, human. Particulars: for Relative Release: Table 36, fraction of o.d. of positive control (PBS only = 1.0; negative control = 0.0); for Relative Release / Relative Release, Without unlabeled hMBP(90-102), 64 μM: AE101 series compound 64 μM; for Relative Release, Without unlabeled hMBP(90-102), 1 μM / Relative Release, Without unlabeled hMBP(90-102), 64 μM: Table 37, no unlabeled hMBP(90-102); for Relative Release, Without unlabeled hMBP(90-102), 1 μM: AE101 series compound 1 μM.

In experiment [2] the test system is murine E^k MHC class II allele. Put plainly: AE101 series peptide prepulse assay, E^k allele. It is filed as cell-based. To be noted: Table 35; AE101 series peptide prepulse 64 μM; antigenic peptide 0.4 μM; supernatant dilution 1:2. How it is done:
(§1) Table 35: Activities of multiple substitution analogs of AE235, targeting the E^k and E^d allele, in an AE101 series peptide prepulse assay. In this assay the concentration of AE101 series peptides used during the prepulse was 64 μM. The concentrations of antigenic peptides were 0.3 μM for Ed and 0.4 μM for E^k. The supernatant dilutions taken into the HT-2 cell assay was 1:4 for E and 1:2 for E^k. The AE381 peptide is a head-to-tail cyclization: the amino terminal amino group is coupled through an amide linkage to the carboxyl terminal group. The AE 382 peptide is a side-to-tail cyclization: the epsilon amino group of Lys^4 is coupled through an amide linkage to the carboxyl terminal group.
(§2) AE101 series peptide prepulse assays were carried out in the E^d and E^k systems as described for simultaneous competition assays with the following modifications. Fixed APC were first incubated for 6 h at 1×10^6DMEM-5% FCS with 64 μM of each AE101 series peptide or with PBS. The APC were then washed four times with ten volumes of DMEM-5% FCS, and were cocultured with T hybridoma cells and the indicated submaximal doses of antigenic peptides used in the simultaneous competition assays. The baseline T cell response was measured by culturing T hybridoma cells with antigenic peptide and PBS-pretreated APC.

In experiment [3] the test system is HLA-DR1 molecules. Put plainly: exchange of biotinylated hMBP(90-102) into antigenic peptide-loaded HLA-DR1 (assay III). It is filed as binding, human. To be noted: Table 38; HLA-DR1 preloaded with unlabeled hMBP(90-102) 50 μM; exchange with biotin-labeled hMBP(90-102) 50 μM, 37° C., 1 h; fraction of positive control o.d.; no enhancement = 0.08.
Experiment [4] has as its target T1, HLA-DR1 molecules (Homo sapiens, UniProt P01903+P01911, A100R/D57E/F55L/F60I/F76Y/I96L/L162R/M171V/P40L/Q125E/R42F/V115G/Y59C).
T1 construct: The HLA-DR alpha gene was truncated after Asn^192 to remove transmembranal and cytoplasmic regions from the protein product; A gene coding for the HLA-DR1 beta chain was truncated after position Lys^198, again to delete the transmembranal region; made in house; host or cells: insect cell line printed as HS / H5 (Invitrogen), co-infected with two baculoviruses; concentrated culture supernatant captured on 12CA5 antibody
Briefly: binding of biotin-labeled hMBP(90-102) to "empty" HLA-DR1 (assay IV). Particulars: Table 39; AE101 series compound 64 μM; biotin-labeled hMBP(90-102) 50 μM, 37° C., 1 h; no enhancement = 1.

Experiment [5] concerns the target T2, murine E^d MHC class II allele (Mus musculus, UniProt P01904+P01915).
T2 sequence (P01904 26-255): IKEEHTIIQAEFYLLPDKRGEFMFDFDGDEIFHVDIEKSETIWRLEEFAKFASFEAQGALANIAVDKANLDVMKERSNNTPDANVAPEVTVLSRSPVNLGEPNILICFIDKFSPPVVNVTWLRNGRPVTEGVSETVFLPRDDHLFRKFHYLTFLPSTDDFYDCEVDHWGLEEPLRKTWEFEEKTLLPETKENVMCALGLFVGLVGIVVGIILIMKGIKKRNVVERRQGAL
T2 sequence (P01915 27-264 limits assumed): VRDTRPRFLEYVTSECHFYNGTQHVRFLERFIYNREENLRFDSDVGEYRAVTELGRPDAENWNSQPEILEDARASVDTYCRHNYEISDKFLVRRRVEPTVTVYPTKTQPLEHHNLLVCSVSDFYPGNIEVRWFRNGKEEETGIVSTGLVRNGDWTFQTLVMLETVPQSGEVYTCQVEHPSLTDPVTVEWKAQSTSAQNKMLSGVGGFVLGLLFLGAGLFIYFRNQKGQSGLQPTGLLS
Put plainly: AE101 series peptide prepulse assay, E^d allele. It is filed as cell-based. Particulars: Table 35; AE101 series peptide prepulse 64 μM; antigenic peptide 0.3 μM; supernatant dilution 1:4. How it is done:
as §1, §2

Non-standard residues stand in square brackets, D forms with d.

On to “Ac-LRMK Y PK-NH2 (Ac-LRMKYPK-NH2; not fully specified; printed as Ac-LRMK Y PK-NH2) [AE235]”, for which the “release of biotin-labeled hMBP(90-102) from HLA-DR1 without second unlabeled antigenic peptide, in words” value in the experiment with HLA-DR1 molecules [1] (Table 36 (compounds tested at 64 μM)) is recorded as “did not release”. For the same substance, in the experiment on HLA-DR1 molecules [1], the “Relative Release” value was 0.79; the “Relative Release, Without unlabeled hMBP(90-102), 1 μM” value worked out at 1.05; the “Relative Release, Without unlabeled hMBP(90-102), 64 μM” value amounted to 0.81. Besides, the “T cell response relative to baseline with PBS-pretreated APC (NONE = 1.0), E^k” value (from here on “T cell response relative to baseline … E^k”) in experiment [2] came out at 2.1. Further, in the experiment with HLA-DR1 molecules [3], the “Relative Binding” value worked out at 0.15. The “Relative Enhancement” value with HLA-DR1 molecules [4] is reported as 0.61. Also, the “T cell response relative to baseline with PBS-pretreated APC (NONE = 1.0), E^d” value (“T cell response relative to baseline … E^d” for short) in experiment [5] was found to be 15.6.

On to “Ac-YRMKL hydrP KSAK-NH2 (Ac-YRMKL[hydrP]KSAK-NH2) [AE143]”, for which, in the experiment with HLA-DR1 molecules [1], the “Relative Release, Without unlabeled hMBP(90-102), 1 μM” value was 0.51 and the “Relative Release, Without unlabeled hMBP(90-102), 64 μM” value is given as 0.58.

As to Ac-YRMK-NH2 [AE117], in experiment [2], the “T cell response relative to baseline … E^k” value was 2.3. For the same substance, the “T cell response relative to baseline … E^d” value in experiment [5] was 4.4.

“Ac-LRMK D PK-NH2 (Ac-LRMKDPK-NH2) [AE230]”: in experiment [2], the “T cell response relative to baseline … E^k” value was 1.6. In addition, in experiment [5], the “T cell response relative to baseline … E^d” value amounted to 0.8.

On to “Ac-LR L KLPK-NH2 (Ac-LRLKLPK-NH2; not fully specified; printed as Ac-LR L KLPK-NH2) [AE206]”, for which, in the experiment with HLA-DR1 molecules [1], the “Relative Release, Without unlabeled hMBP(90-102), 1 μM” value is listed as 0.58 and the “Relative Release, Without unlabeled hMBP(90-102), 64 μM” value was determined as 0.08. Besides, the “T cell response relative to baseline … E^k” value in experiment [2] was determined as 2.7. Besides, in the experiment with HLA-DR1 molecules [3], the “Relative Binding” value was −0.13. Further, the “Relative Enhancement” value with HLA-DR1 molecules [4] amounted to 2.57. The “T cell response relative to baseline … E^d” value in experiment [5] amounted to 5.0.

With Ac-LRMKLPK-NH2 [AE114], the “T cell response relative to baseline … E^k” value in experiment [2] came to 2.0. In addition, the “T cell response relative to baseline … E^d” value in experiment [5] was found to be 6.0.

Consider YRMKLPKSAKPVSQMR [AE101], for which the “release of hMBP(90-102) from HLA-DR1” value with HLA-DR1 molecules [1] (AE peptide at 125 nM, additional experiments) is reported as “completely release”. Also, in the experiment with HLA-DR1 molecules [1] (AE peptide at 1 μM without unlabeled hMBP(90-102)), the “release of biotin-labeled hMBP(90-102) (Relative Release)” value came to 0.02. The “Relative Release” value in the experiment with HLA-DR1 molecules [1] is recorded as −0.33. In addition, the “Relative Binding” value with HLA-DR1 molecules [3] is reported as 0.31. The “Relative Enhancement” value with HLA-DR1 molecules [4] amounted to 2.66.
